# From ChEMBL document CHEMBL1201862, “PubChem BioAssay data set” (2004)
#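 All cell lines were grown in 96-well plates and treated with compound for 48 hours. At the GI50, growth is halved.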 Calls of active or inactive are those of the source. Rule as the data show it: active = GI50 up to about 1.1 µM and inactive = higher.
# How the values were obtained:
# Assay in all cases: inhibition of tumour cell growth, NCI panel, 48 h
# U-251 = test system: U-251
# 786-0 = test system: 786-0
# SF-295 = test system: SF-295
# SNB-75 = test system: SNB-75
# OVCAR-4 = test system: OVCAR-4
# A498 = test system: A498
# K562 = test system: K562
# IGROV-1 = test system: IGROV-1
# UACC-62 = test system: UACC-62
# KM12 = test system: KM12
# NCI-H226 = test system: NCI-H226
# NCI-H460 = test system: NCI-H460
# OVCAR-8 = test system: OVCAR-8
# Malme-3M = test system: Malme-3M
# SK-OV-3 = test system: SK-OV-3
# NCI-H23 = test system: NCI-H23
# LOX IMVI = test system: LOX IMVI
# ACHN = test system: ACHN
# TK-10 = test system: TK-10
Compound,GI50 (U-251),GI50 (786-0),GI50 (SF-295),GI50 (SNB-75),GI50 (OVCAR-4),GI50 (A498),GI50 (K562),GI50 (IGROV-1),GI50 (UACC-62),GI50 (KM12),GI50 (NCI-H226),GI50 (NCI-H460),GI50 (OVCAR-8),GI50 (Malme-3M),GI50 (SK-OV-3),GI50 (NCI-H23),GI50 (LOX IMVI),GI50 (ACHN),GI50 (TK-10)
CSc1ccc2c(cc1=O)[C@@H](NC(=O)c1cccc([N+](=O)[O-])c1)CCc1cc(O)c(O)c(O)c1-2,22.8 µM (inactive),61.2 µM (inactive),42.4 µM (inactive),25.1 µM (inactive),50 µM (inactive),27.7 µM (inactive),26.6 µM (inactive),46.2 µM (inactive),18.3 µM (inactive),31.2 µM (inactive),24.2 µM (inactive),54.2 µM (inactive),66.5 µM (inactive),81.3 µM (inactive),42.4 µM (inactive),33 µM (inactive),17.5 µM (inactive),> 100 µM (inactive),> 100 µM (inactive)
COC(=O)C1=Cc2c(OC)cc(OC)c(OC)c2[C@H](c2cc(OC)c(OC)cc2OC)C1C(=O)OC (some centres not stated),> 100 µM (inactive),> 100 µM (inactive),88.5 µM (inactive),57.8 µM (inactive),99.5 µM (inactive),> 100 µM (inactive),20.1 µM (inactive),> 100 µM (inactive),> 100 µM (inactive),> 100 µM (inactive),> 100 µM (inactive),> 100 µM (inactive),> 100 µM (inactive),> 100 µM (inactive),> 100 µM (inactive),> 100 µM (inactive),> 100 µM (inactive),> 100 µM (inactive),> 100 µM (inactive)
CC(=O)/C(=C/NC(=S)Nc1ccc(Cl)c(Cl)c1)C(=O)Nc1ccccc1C,33 µM (inactive),35 µM (inactive),32 µM (inactive),18.1 µM (inactive),18.6 µM (inactive),26.2 µM (inactive),–,27.4 µM (inactive),19 µM (inactive),24.9 µM (inactive),13.8 µM (inactive),38.5 µM (inactive),18.9 µM (inactive),–,30.9 µM (inactive),23.6 µM (inactive),34 µM (inactive),32.6 µM (inactive),43.8 µM (inactive)
CCCNC(=O)NNC(=O)c1c[nH]c2nc(C)ccc2c1=O,> 100 µM (inactive),> 100 µM (inactive),> 100 µM (inactive),–,> 100 µM (inactive),> 100 µM (inactive),> 100 µM (inactive),> 100 µM (inactive),> 100 µM (inactive),> 100 µM (inactive),> 100 µM (inactive),> 100 µM (inactive),> 100 µM (inactive),> 100 µM (inactive),–,> 100 µM (inactive),> 100 µM (inactive),> 100 µM (inactive),> 100 µM (inactive)
COc1ccc(N2C(=O)[C@@H]3[C@H](C2=O)c2[nH]c4ccccc4c2C2CCC(C(C)(C)C)C[C@@H]23)cc1 (some centres not stated),20.9 µM (inactive),14.9 µM (inactive),12.3 µM (inactive),15.9 µM (inactive),–,26 µM (inactive),14.5 µM (inactive),34.1 µM (inactive),19.1 µM (inactive),38.7 µM (inactive),22.3 µM (inactive),25.2 µM (inactive),18 µM (inactive),30.4 µM (inactive),18.6 µM (inactive),22.4 µM (inactive),22.8 µM (inactive),24.3 µM (inactive),28 µM (inactive)
CC(=O)NNc1nc(C)c(C(/C=C/c2ccc(Cl)cc2)=N\NS(=O)(=O)c2ccc(C)cc2)s1,> 100 µM (inactive),> 100 µM (inactive),> 100 µM (inactive),> 100 µM (inactive),> 100 µM (inactive),> 100 µM (inactive),> 100 µM (inactive),> 100 µM (inactive),> 100 µM (inactive),> 100 µM (inactive),> 100 µM (inactive),> 100 µM (inactive),> 100 µM (inactive),> 100 µM (inactive),> 100 µM (inactive),> 100 µM (inactive),> 100 µM (inactive),> 100 µM (inactive),> 100 µM (inactive)
NC(=S)NNC(=O)CCC(=O)Nc1ccc(Cl)cc1Cl,> 100 µM (inactive),> 100 µM (inactive),> 100 µM (inactive),> 100 µM (inactive),> 100 µM (inactive),> 100 µM (inactive),17.7 µM (inactive),> 100 µM (inactive),29.9 µM (inactive),> 100 µM (inactive),> 100 µM (inactive),> 100 µM (inactive),> 100 µM (inactive),> 100 µM (inactive),> 100 µM (inactive),> 100 µM (inactive),66.8 µM (inactive),> 100 µM (inactive),> 100 µM (inactive)
Cc1cc2nc3c(C#N)c4c(c(Nc5ccc(Cl)cc5)n3c2cc1C)CCC4,18.9 µM (inactive),15.9 µM (inactive),> 100 µM (inactive),30.5 µM (inactive),32.5 µM (inactive),> 100 µM (inactive),–,–,–,32.9 µM (inactive),22.9 µM (inactive),–,19.3 µM (inactive),23.8 µM (inactive),> 100 µM (inactive),26.3 µM (inactive),18.7 µM (inactive),20.6 µM (inactive),11.1 µM (inactive)
COc1ccc(C(SCCO)(c2ccccc2)c2ccc(OC)cc2)cc1,4.46 µM (inactive),14.6 µM (inactive),4.36 µM (inactive),4.58 µM (inactive),15.8 µM (inactive),13.9 µM (inactive),16.7 µM (inactive),16.8 µM (inactive),11.5 µM (inactive),5.38 µM (inactive),13.6 µM (inactive),4.61 µM (inactive),19.2 µM (inactive),16.4 µM (inactive),10.8 µM (inactive),18.7 µM (inactive),16.5 µM (inactive),16 µM (inactive),18.1 µM (inactive)
CC1=C(C(=O)O)N2C(=O)[C@@H](NC(=O)C(c3ccc(O)cc3)N3CSC(=S)N(C(C)C)C3)C2SC1 (some centres not stated),> 100 µM (inactive),> 100 µM (inactive),> 100 µM (inactive),> 100 µM (inactive),> 100 µM (inactive),> 100 µM (inactive),57.8 µM (inactive),> 100 µM (inactive),> 100 µM (inactive),> 100 µM (inactive),–,> 100 µM (inactive),> 100 µM (inactive),> 100 µM (inactive),> 100 µM (inactive),> 100 µM (inactive),> 100 µM (inactive),> 100 µM (inactive),> 100 µM (inactive)
O=C1/C(=C\c2cccc(Oc3ccccc3)c2)SC(c2ccccc2)N1c1cc(Cl)ccc1Cl (configuration not stated),33.4 µM (inactive),27 µM (inactive),24.2 µM (inactive),> 100 µM (inactive),51.2 µM (inactive),> 100 µM (inactive),21.2 µM (inactive),26.3 µM (inactive),31.4 µM (inactive),18.2 µM (inactive),–,45.4 µM (inactive),21.3 µM (inactive),28.2 µM (inactive),> 100 µM (inactive),33.4 µM (inactive),16.8 µM (inactive),43.7 µM (inactive),47 µM (inactive)
Cc1c(CCO)c(O)n2c(nc3ccccc32)c1C#N,46.1 µM (inactive),66.4 µM (inactive),> 100 µM (inactive),> 100 µM (inactive),39.4 µM (inactive),> 100 µM (inactive),99.5 µM (inactive),68.4 µM (inactive),> 100 µM (inactive),> 100 µM (inactive),98.4 µM (inactive),26.7 µM (inactive),83.9 µM (inactive),> 100 µM (inactive),> 100 µM (inactive),53.8 µM (inactive),68.7 µM (inactive),> 100 µM (inactive),> 100 µM (inactive)
COc1cc(C/C=C/c2ccccc2)c(OC)cc1O [VIOLASTYRENE],18.7 µM (inactive),13.8 µM (inactive),–,24.6 µM (inactive),18 µM (inactive),80.4 µM (inactive),15.6 µM (inactive),18.3 µM (inactive),16.8 µM (inactive),17 µM (inactive),24.5 µM (inactive),20.3 µM (inactive),12.6 µM (inactive),22.6 µM (inactive),–,21.3 µM (inactive),17.7 µM (inactive),23.6 µM (inactive),18.8 µM (inactive)
CC(=O)O[C@H]1CCC2[C@@H]3CCC4=C(O)C(=O)C(C#N)C[C@]4(C)C3CC[C@@]21C (some centres not stated),47.8 µM (inactive),24.4 µM (inactive),45.9 µM (inactive),12.6 µM (inactive),30.9 µM (inactive),0.361 µM (active),24.8 µM (inactive),26.2 µM (inactive),15.5 µM (inactive),35.7 µM (inactive),24.9 µM (inactive),31.6 µM (inactive),44.5 µM (inactive),36.1 µM (inactive),29.4 µM (inactive),29.1 µM (inactive),18.9 µM (inactive),26.7 µM (inactive),18.2 µM (inactive)
CCOC(=O)CCc1c(C)c2c(OC)cc(OC)cc2oc1=O,> 100 µM (inactive),34.1 µM (inactive),> 100 µM (inactive),21.5 µM (inactive),> 100 µM (inactive),–,–,–,–,> 100 µM (inactive),25.5 µM (inactive),> 100 µM (inactive),> 100 µM (inactive),51.3 µM (inactive),–,> 100 µM (inactive),> 100 µM (inactive),42.4 µM (inactive),> 100 µM (inactive)
